According to ChEMBL document CHEMBL3751830, “Design and discovery of new pyrimidine coupled nitrogen aromatic rings as chelating groups of JMJD3 inhibitors” (Bioorg Med Chem Lett, 2016):
Values belong to the molecule of their own block, whether it stands above or below them. Activity calls are given as the source filed them. No cut-off for these calls is given here.

Tests used:
CYP1A2 = biological target: T1, CYP1A2 (Homo sapiens, UniProt P05177); experiment: Inhibition of CYP1A2 in human liver microsomes at 10 uM after 20 mins; format: ADME
T1 sequence (P05177 whole entry): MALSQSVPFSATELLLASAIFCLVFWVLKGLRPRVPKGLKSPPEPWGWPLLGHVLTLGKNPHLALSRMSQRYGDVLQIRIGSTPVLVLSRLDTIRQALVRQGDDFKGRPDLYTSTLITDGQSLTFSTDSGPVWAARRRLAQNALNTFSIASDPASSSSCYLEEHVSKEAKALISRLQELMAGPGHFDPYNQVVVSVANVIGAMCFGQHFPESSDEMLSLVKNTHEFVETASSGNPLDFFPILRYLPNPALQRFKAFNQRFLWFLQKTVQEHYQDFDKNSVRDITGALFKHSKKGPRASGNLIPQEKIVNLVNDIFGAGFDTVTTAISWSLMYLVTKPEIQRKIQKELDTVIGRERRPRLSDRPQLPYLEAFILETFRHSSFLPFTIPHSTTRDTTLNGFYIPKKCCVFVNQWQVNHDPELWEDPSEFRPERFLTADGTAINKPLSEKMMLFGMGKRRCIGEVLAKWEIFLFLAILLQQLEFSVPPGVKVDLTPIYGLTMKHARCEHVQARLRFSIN

CYP2C19 = CYP2C19 (Homo sapiens, UniProt P33261); experiment: Inhibition of CYP2C19 in human liver microsomes at 10 uM after 20 mins; format: ADME
Chain of CYP2C19 (P33261 whole entry): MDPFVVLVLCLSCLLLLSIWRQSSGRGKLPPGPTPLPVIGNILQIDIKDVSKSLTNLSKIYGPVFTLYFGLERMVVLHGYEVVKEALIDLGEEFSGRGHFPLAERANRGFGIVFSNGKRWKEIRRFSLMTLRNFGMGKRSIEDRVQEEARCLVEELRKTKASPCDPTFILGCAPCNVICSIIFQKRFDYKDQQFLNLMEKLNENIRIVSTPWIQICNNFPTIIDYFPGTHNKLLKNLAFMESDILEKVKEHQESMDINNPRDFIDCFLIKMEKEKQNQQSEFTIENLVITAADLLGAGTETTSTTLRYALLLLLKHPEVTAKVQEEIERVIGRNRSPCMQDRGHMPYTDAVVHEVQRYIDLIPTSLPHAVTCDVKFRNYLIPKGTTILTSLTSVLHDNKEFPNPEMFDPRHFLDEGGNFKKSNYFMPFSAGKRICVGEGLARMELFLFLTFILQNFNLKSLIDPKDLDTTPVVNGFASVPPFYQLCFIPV

[1] = Intrinsic clearance in human liver microsomes at 1 uM up to 30 mins by LC/MS/MS analysis; format: ADME; details: read-out: CLH
CYP2D6 = CYP2D6 (Homo sapiens, UniProt P10635); experiment: Inhibition of CYP2D6 in human liver microsomes at 10 uM after 20 mins; format: ADME
Chain of CYP2D6 (P10635 whole entry): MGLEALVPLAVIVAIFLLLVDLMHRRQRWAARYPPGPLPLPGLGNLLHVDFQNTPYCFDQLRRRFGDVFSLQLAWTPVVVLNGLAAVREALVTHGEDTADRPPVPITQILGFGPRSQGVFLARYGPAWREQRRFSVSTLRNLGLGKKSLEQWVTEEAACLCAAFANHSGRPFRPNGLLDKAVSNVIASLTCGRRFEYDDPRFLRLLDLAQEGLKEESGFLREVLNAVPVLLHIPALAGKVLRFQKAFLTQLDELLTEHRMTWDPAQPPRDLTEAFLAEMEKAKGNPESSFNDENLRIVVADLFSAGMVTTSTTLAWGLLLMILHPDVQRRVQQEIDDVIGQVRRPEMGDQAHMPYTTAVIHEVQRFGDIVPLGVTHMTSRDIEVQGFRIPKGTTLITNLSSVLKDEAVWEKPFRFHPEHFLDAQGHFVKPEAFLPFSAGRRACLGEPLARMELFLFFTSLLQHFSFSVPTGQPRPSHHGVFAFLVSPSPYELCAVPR

CYP2C9 = CYP2C9 (Homo sapiens, UniProt P11712); experiment: Inhibition of CYP2C9 in human liver microsomes at 10 uM after 20 mins; format: ADME
Chain of CYP2C9 (P11712 whole entry): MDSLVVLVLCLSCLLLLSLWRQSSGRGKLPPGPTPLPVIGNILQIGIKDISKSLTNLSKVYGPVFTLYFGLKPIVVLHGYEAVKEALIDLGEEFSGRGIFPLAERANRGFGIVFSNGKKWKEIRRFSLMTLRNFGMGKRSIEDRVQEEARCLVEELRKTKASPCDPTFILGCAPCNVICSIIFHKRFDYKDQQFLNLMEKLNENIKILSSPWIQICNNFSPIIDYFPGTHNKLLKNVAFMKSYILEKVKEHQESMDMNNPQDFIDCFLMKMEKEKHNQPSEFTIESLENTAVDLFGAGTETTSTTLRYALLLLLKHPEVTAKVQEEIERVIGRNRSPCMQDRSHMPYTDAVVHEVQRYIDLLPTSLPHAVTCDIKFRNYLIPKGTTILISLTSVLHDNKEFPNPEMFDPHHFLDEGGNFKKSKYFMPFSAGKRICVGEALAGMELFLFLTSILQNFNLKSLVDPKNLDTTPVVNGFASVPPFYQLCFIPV

[2] = Half life in human liver microsomes at 1 uM by LC/MS/MS analysis; format: ADME
[3] = biological target: T2, Lysine-specific demethylase 6B (Homo sapiens, UniProt O15054); experiment: Inhibition of JMJD3 (unknown origin) using biotinylated H3K27me3 peptide as substrate at 10 uM after 1 hr by AlphaLISA assay
T2 sequence (O15054 whole entry): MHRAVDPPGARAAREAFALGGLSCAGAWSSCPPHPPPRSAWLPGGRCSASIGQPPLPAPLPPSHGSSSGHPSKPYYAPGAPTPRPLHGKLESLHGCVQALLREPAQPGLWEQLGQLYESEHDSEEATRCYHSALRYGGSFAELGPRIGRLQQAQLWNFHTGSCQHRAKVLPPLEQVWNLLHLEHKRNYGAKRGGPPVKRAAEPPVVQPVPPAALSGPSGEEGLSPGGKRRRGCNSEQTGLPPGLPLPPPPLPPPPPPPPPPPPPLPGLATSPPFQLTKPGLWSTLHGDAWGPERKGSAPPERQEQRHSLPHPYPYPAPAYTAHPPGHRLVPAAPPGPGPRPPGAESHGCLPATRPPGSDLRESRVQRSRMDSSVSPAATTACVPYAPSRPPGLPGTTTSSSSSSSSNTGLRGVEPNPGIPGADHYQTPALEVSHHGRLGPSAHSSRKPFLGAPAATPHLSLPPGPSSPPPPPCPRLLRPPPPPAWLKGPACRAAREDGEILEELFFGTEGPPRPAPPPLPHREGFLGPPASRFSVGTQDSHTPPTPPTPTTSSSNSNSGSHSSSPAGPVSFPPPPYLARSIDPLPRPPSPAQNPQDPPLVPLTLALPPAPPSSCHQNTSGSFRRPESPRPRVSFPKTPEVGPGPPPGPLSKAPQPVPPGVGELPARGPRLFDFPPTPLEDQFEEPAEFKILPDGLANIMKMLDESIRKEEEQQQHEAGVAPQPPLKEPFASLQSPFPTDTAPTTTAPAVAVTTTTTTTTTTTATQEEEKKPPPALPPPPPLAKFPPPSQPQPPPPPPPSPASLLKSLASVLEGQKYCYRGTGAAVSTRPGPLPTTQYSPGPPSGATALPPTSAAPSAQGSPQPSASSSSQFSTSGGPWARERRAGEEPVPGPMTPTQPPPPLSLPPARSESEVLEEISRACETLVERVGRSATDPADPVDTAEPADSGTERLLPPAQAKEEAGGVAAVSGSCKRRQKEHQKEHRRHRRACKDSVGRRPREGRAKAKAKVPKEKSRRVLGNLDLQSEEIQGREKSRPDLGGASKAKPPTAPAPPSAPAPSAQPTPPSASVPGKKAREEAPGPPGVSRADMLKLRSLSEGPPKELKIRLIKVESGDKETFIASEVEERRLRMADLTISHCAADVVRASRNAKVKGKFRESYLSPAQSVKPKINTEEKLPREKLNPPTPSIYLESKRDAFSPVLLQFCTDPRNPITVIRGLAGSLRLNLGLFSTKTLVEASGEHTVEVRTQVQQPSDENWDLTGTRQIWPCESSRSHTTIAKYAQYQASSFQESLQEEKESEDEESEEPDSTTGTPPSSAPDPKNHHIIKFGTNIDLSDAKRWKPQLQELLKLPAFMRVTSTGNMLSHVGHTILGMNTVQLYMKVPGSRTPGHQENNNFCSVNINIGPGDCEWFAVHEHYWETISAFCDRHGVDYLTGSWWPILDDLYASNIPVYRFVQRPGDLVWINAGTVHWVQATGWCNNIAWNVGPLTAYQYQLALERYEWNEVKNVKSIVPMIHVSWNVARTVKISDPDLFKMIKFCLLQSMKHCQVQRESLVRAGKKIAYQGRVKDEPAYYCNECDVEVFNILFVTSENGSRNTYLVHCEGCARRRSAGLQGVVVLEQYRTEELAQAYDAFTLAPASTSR

[4] = biological target: T2, Lysine-specific demethylase 6B
Description: Inhibition of JMJD3 (unknown origin) using biotinylated H3K27me3 peptide as substrate after 1 hr by AlphaLISA assay

CYP3A4 = CYP3A4 (Homo sapiens, UniProt P08684); experiment: in vitro; details: liver microsomes
Chain of CYP3A4 (P08684 whole entry): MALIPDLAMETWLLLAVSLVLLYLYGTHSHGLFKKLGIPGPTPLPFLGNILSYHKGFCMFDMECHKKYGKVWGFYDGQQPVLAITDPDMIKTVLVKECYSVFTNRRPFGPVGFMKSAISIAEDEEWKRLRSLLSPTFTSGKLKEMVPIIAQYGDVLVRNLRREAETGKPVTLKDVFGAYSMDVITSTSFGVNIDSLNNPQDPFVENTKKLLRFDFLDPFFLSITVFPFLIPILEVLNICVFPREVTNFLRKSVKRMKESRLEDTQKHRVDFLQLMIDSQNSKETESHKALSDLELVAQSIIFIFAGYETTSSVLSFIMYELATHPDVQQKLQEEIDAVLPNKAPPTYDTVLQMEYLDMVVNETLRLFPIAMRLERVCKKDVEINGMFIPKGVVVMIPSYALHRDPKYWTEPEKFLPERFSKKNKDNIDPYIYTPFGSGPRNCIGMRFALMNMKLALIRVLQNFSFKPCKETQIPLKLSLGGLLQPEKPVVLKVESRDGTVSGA
Description: Inhibition of CYP3A4 in human liver microsomes at 10 uM after 20 mins

RAW264.7 [5] = experiment: Inhibition of LPS-induced TNFalpha production in mouse RAW264.7 cells after 24 hrs by ELISA; format: functional, cell-based
RAW264.7 [6] = experiment: Inhibition of LPS-induced TNFalpha production in mouse RAW264.7 cells 0.82 uM after 24 hrs by ELISA; format: functional, cell-based

- inhibition at 20 min, 10 µM (CYP1A2): 10%
- inhibition at 20 min, 10 µM (CYP2C19): 16%
- microsomal CLint at 1 µM [1]: 3 µL/min/mg
- inhibition at 20 min, 10 µM (CYP2D6): 20%
- inhibition at 20 min, 10 µM (CYP2C9): 5%
- half-life at 1 µM [2]: 8.25 h
Compound: O=C(O)CCNc1cc(N2CCc3ccccc3CC2)nc(-c2ccccn2)n1

- inhibition [3]: 43.9%
Compound: CN(Cc1ccco1)c1cc(-c2nccs2)nc(NCCC(=O)O)n1

- IC50 [4]: 6100 nM
Compound: O=C(O)CCNc1nc(N2CCc3ccccc3C2)cc(-n2cc3ccccc3n2)n1

- IC50 [4]: > 100000 nM
Compound: O=C(O)CCNc1nc(N2CCN(c3ccc(Cl)c(Cl)c3)CC2)cc(-n2cc3ccccc3n2)n1

- IC50 [4]: 750 nM
Compound: O=C(O)CCNc1nc(N2CCC(c3ccccc3)CC2)cc(-n2cccn2)n1

- inhibition at 20 min, 10 µM (CYP1A2): 8%
- inhibition at 20 min, 10 µM (CYP2C19): 11%
- IC50 [4]: 2200 nM
- microsomal CLint at 1 µM [1]: 5 µL/min/mg
- inhibition at 20 min, 10 µM (CYP2D6): 0%
- inhibition at 20 min, 10 µM (CYP2C9): 17%
- half-life at 1 µM [2]: 4.28 h
- inhibition at 20 min, 10 µM (CYP3A4): 4%
Compound: O=C(O)CCNc1nc(N2CCc3ccccc3CC2)cc(-n2cc3ccccc3n2)n1

- IC50 [4]: 2100 nM
Compound: COc1ccccc1N1CCN(c2cc(-c3nccs3)nc(NCCC(=O)O)n2)CC1

- IC50 [4]: 490 nM
Compound: O=C(O)CCNc1nc(N2CCc3ccccc3C2)cc(-n2cccn2)n1

Compound: CCOC(=O)CCNc1nc(N2CCc3ccccc3CC2)cc(-n2nccn2)n1
- inhibition (RAW264.7 [5]): Dose-dependent effect
- inhibition (RAW264.7 [6]): Active

- inhibition at 20 min, 10 µM (CYP1A2): 1%
- inhibition at 20 min, 10 µM (CYP2C19): 8%
- IC50 [4]: 210 nM
- inhibition at 20 min, 10 µM (CYP2D6): 6%
- inhibition at 20 min, 10 µM (CYP2C9): 1%
- half-life at 1 µM [2]: > 11.6 h
- inhibition at 20 min, 10 µM (CYP3A4): 7%
Compound: O=C(O)CCNc1nc(N2CCc3ccccc3CC2)cc(-n2ccnn2)n1

- inhibition [3]: 21.1%
Compound: O=C(O)CCNc1nc(NC2Cc3ccccc3C2)cc(-c2nccs2)n1

Compound: CCOC(=O)CCNc1cc(N2CCc3ccccc3CC2)nc(-c2ccccn2)n1
- inhibition (RAW264.7 [5]): Active
- inhibition (RAW264.7 [6]): Active

- inhibition [3]: 9.8%
Compound: CC(C)(C)OC(=O)NC1CCN(c2cc(-c3nccs3)nc(NCCC(=O)O)n2)CC1

- inhibition at 20 min, 10 µM (CYP1A2): 5%
- inhibition at 20 min, 10 µM (CYP2C19): 3%
- IC50 [4]: 150 nM
- inhibition at 20 min, 10 µM (CYP2D6): 5%
- inhibition at 20 min, 10 µM (CYP2C9): 5%
- half-life at 1 µM [2]: > 11.6 h
- inhibition at 20 min, 10 µM (CYP3A4): 3%
Compound: O=C(O)CCNc1nc(N2CCc3ccccc3CC2)cc(-n2cccn2)n1

- IC50 [4]: 1400 nM
Compound: O=C(O)CCNc1nc(N2CCN(c3ccc(Cl)c(Cl)c3)CC2)cc(-n2nccn2)n1

- IC50 [4]: 1500 nM
Compound: O=C(O)CCNc1nc(N2CCc3ccccc3C2)cc(-n2nccn2)n1

- IC50 [4]: > 20000 nM
Compound: COc1ccccc1N1CCN(c2cc(-n3cccn3)nc(NCCC(=O)O)n2)CC1

- IC50 [4]: 2600 nM
Compound: O=C(O)CCNc1nc(N2CCN(c3ccc(F)cc3)CC2)cc(-n2nccn2)n1

- IC50 [4]: 1200 nM
Compound: O=C(O)CCNc1nc(-c2nccs2)cc(N2CCC(c3ccccc3)CC2)n1

- IC50 [4]: 990 nM
Compound: O=C(O)CCNc1nc(-c2nccs2)cc(N2CCc3ccccc3C2)n1

- inhibition [3]: 1%
Compound: O=C(O)CCNc1nc(NCc2cc(C(F)(F)F)cc(C(F)(F)F)c2)cc(-c2nccs2)n1

- IC50 [4]: 1400 nM
Compound: O=C(O)CCNc1nc(N2CCc3ccccc3C2)cc(-n2ccnn2)n1

- IC50 [4]: 5800 nM
Compound: O=C(O)CCNc1nc(N2CCN(c3ccc(F)cc3)CC2)cc(-n2cc3ccccc3n2)n1

- IC50 [4]: 1300 nM
Compound: O=C(O)CCNc1nc(N2CCN(c3ccccn3)CC2)cc(-n2nccn2)n1

- inhibition [3]: 74%
Compound: O=C(O)CCNc1nc(N2CCN(c3ccc(Cl)c(Cl)c3)CC2)cc(-n2ccnn2)n1

- inhibition [3]: 54%
Compound: O=C(O)CCNc1nc(N2CCN(c3ccccn3)CC2)cc(-n2cc3ccccc3n2)n1

- IC50 [4]: 600 nM
Compound: O=C(O)CCNc1nc(-c2nccs2)cc(N2CCN(c3ccc(F)cc3)CC2)n1

Compound: CCOC(=O)CCNc1nc(N2CCc3ccccc3CC2)cc(-n2cccn2)n1
- inhibition (RAW264.7 [5]): Dose-dependent effect
- inhibition (RAW264.7 [6]): Active

- IC50 [4]: 550 nM
Compound: O=C(O)CCNc1nc(N2CCN(c3ccc(F)cc3)CC2)cc(-n2cccn2)n1

- inhibition [3]: 32.9%
Compound: CC(=O)N1CCN(c2cc(-c3nccs3)nc(NCCC(=O)O)n2)CC1

- IC50 [4]: 940 nM
Compound: O=C(O)CCNc1nc(-c2nccs2)cc(N2CCN(c3ccc(Cl)c(Cl)c3)CC2)n1

- IC50 [4]: 740 nM
Compound: O=C(O)CCNc1nc(N2CCN(c3ccc(Cl)c(Cl)c3)CC2)cc(-n2cccn2)n1

- inhibition [3]: 30%
Compound: O=C(O)CCNc1nc(N2CCC(c3ccccc3)CC2)cc(-n2cc3ccccc3n2)n1

- IC50 [4]: 1000 nM
Compound: O=C(O)CCNc1nc(N2CCN(c3ccccn3)CC2)cc(-n2cccn2)n1

- IC50 [4]: 900 nM
Compound: O=C(O)CCNc1nc(-c2nccs2)cc(N2CCN(c3ccccn3)CC2)n1

- inhibition [3]: -5.1%
Compound: CC(C)NC(=O)CN1CCN(c2cc(-c3nccs3)nc(NCCC(=O)O)n2)CC1

- IC50 [4]: 1200 nM
Compound: O=C(O)CCNc1nc(N2CCC(c3ccccc3)CC2)cc(-n2nccn2)n1

- inhibition at 20 min, 10 µM (CYP1A2): 4%
- inhibition at 20 min, 10 µM (CYP2C19): 4%
- IC50 [4]: 270 nM
- microsomal CLint at 1 µM [1]: 1 µL/min/mg
- inhibition at 20 min, 10 µM (CYP2D6): 6%
- inhibition at 20 min, 10 µM (CYP2C9): 4%
- half-life at 1 µM [2]: 38.5 h
- inhibition at 20 min, 10 µM (CYP3A4): 7%
Compound: O=C(O)CCNc1nc(N2CCc3ccccc3CC2)cc(-n2nccn2)n1

- IC50 [4]: > 20000 nM
Compound: COc1ccccc1N1CCN(c2cc(-n3nccn3)nc(NCCC(=O)O)n2)CC1

- inhibition [3]: 87.5%
Compound: Cc1ccccc1C1CCN(c2cc(-c3nccs3)nc(NCCC(=O)O)n2)CC1

- inhibition [3]: -0.6%
Compound: Cc1ccccc1CNc1cc(-c2nccs2)nc(NCCC(=O)O)n1

- inhibition [3]: 10%
Compound: O=C(O)CCNc1nc(NC2CCN(Cc3ccccc3)CC2)cc(-c2nccs2)n1

Compound: CCOC(=O)CCNc1nc(-c2nccs2)cc(N2CCc3ccccc3CC2)n1
- inhibition (RAW264.7 [5]): Active
- inhibition (RAW264.7 [6]): Active

- inhibition [3]: -8.4%
Compound: O=C(O)CCNc1nc(-c2nccs2)cc(N2CCC(N3CCCC3)CC2)n1

Compound: CCOC(=O)CCNc1nc(N2CCc3ccccc3CC2)cc(-n2ccnn2)n1
- inhibition (RAW264.7 [5]): Active
- inhibition (RAW264.7 [6]): Active

- inhibition [3]: -8.7%
Compound: COc1cc(CNc2cc(-c3nccs3)nc(NCCC(=O)O)n2)cc(OC)c1

- IC50 [4]: 10000 nM
Compound: O=C(O)CCNc1nc(N2CCN(c3ccc(F)cc3)CC2)cc(-n2ccnn2)n1

- IC50 [4]: 2100 nM
Compound: O=C(O)CCNc1nc(N2CCC(c3ccccc3)CC2)cc(-n2ccnn2)n1

- inhibition at 20 min, 10 µM (CYP1A2): 9%
- inhibition at 20 min, 10 µM (CYP2C19): 13%
- IC50 [4]: 200 nM
- microsomal CLint at 1 µM [1]: 5 µL/min/mg
- inhibition at 20 min, 10 µM (CYP2D6): 8%
- inhibition at 20 min, 10 µM (CYP2C9): 9%
- half-life at 1 µM [2]: 4.44 h
- inhibition at 20 min, 10 µM (CYP3A4): 12%
Compound: O=C(O)CCNc1nc(-c2nccs2)cc(N2CCc3ccccc3CC2)n1
